Experimental data: publication PMC7381729, “A new class of PentixaFor- and PentixaTher-based theranostic agents with enhanced CXCR4-targeting efficiency” (Theranostics, 2020)
Where two headings read alike, the source gives them in different places. Where a SMILES comes first, the peptide text is derived from it. Side-chain parts run from the residue outwards. [ ]: non-standard residue; d: D form. The star is where a group is joined. DOTA = O=C(O)CN1CCN(CC(=O)O)CCN(CC(=O)*)CCN(CC(=O)O)CC1; 2Nal = N[C@@H](Cc1ccc2ccccc2c1)C(=O)O; dNMeOrn = CN[C@H](CCCN)C(=O)O; 4Abz = Nc1ccc(C(=O)O)cc1

How the values were obtained:
[1] = Small animal PET imaging in Daudi xenograft bearing mice; format: in vivo; conditions: CB17 SCID, mouse, iv, total radioactivity, 90 min p.i., dynamic PET, ROI analysis, n=1 per compound
Method: Small aminal PET imaging studies were performed using a Siemens Inveon PET scanner. Animals were anesthetized with isoflurane and injected via the tail vein with 10 to 15 MBq (0.1 nmol) of the respective tracer. Dynamic imaging (n=1 per compound) was performed after on-bed injection for 1.5 h, and static images (n=1 per compound) were acquired at 1 h p.i. with an acquisition time of 15 min. Data analysis was performed using the Inveon Research Workplace software. Images were reconstructed using a 3D ordered-subsets expectation maximum (OSEM3D) algorithm without scanner and attenuation correction. Time-activity curves (Figure 4) were obtained by generating isocontour regions of interest (ROI) for the tumor and the heart content (as a surrogate for blood activity), as well as by defining two spherical ROIs (each 23.4 mm^3) in the thigh area (muscle) and areas of homogenous tracer uptake in the liver, followed by plotting of average activity ± SD per volume in these ROIs over time.  Figure 4 Results from small animal PET imaging using [^68Ga]PentixaFor (top row), [^68Ga]DOTA-r-a-ABA-CPCR4 (middle row) and [^68Ga]DOTA-r-a-ABA-iodoCPCR4 (bottom row) in Daudi xenograft bearing CB17 SCID mice. Images on the left (MIP) were obtained by static imaging (1h p.i., n=1), the time activity curves (TAC) on the right were acquired by dynamic PET imaging (0-90 min p.i., n=1).

[2] = Biodistribution in Daudi xenograft bearing mice; format: in vivo, mouse; conditions: female, CB-17 SCID, mouse, iv, total radioactivity, 1h p.i., means ± SD
Summary of the method: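 Female CB-17 SCID mice with Daudi xenografts (n=4-5) received 5-10 MBq (0.08-0.11 nmol) ^68Ga- or ^177Lu-labelled ligand i.v.; blocking by coinjected 50 µg AMD3100. Organs counted by γ-counter at 1, 6 and 48 h p.i.; %ID/g (mean ± SD).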

C[C@@H](NC(=O)[C@@H](CCCNC(=N)N)NC(=O)CN1CCN(CC(=O)O)CCN(CC(=O)O)CCN(CC(=O)O)CC1)C(=O)Nc1ccc(C(=O)NCCC[C@@H]2C(=O)N[C@@H](CCCNC(=N)N)C(=O)N[C@@H](Cc3ccc4ccccc4c3)C(=O)NCC(=O)N[C@H](Cc3ccc(O)cc3)C(=O)N2C)cc1 [[^68Ga]DOTA-r-a-ABA-CPCR4, metal not drawn] (cyclo([2Nal]G[dY][dNMeOrn]([4Abz-dA-dR-DOTA])R))
tissue uptake per volume at 1.5 h ([1]; kidney, read-out: Kidney uptake in PET): 9.4 ± 0.2 %ID/mL
tissue uptake per volume at 1.5 h ([1]; liver, average ± SD per volume in ROI, read-out: Liver uptake in PET): 6 ± 0.2 %ID/mL
tissue uptake per volume at 1.5 h ([1]; tumor (Daudi xenograft), Daudi xenograft, read-out: Tumor accumulation in PET): 12 ± 0.7 %ID/mL
tissue uptake at 1 h ([2]; adrenals, tracer only, i.v., γ-counter, n=4-5 (68Ga: n=4), read-out: Biodistribution adrenals): 1.9 ± 1.14 %ID/g
tissue uptake at 1 h ([2]; adrenals, with AMD3100, 50 µg per animal, coinjected (CXCR4 competition), coinjection of 50 µg AMD3100/animal, n=3, read-out: Biodistribution adrenals, competition with AMD3100): 1.02 ± 0.27 %ID/g
tissue uptake at 1 h ([2]; blood, with AMD3100, 50 µg per animal, coinjected (CXCR4 competition), coinjection of 50 µg AMD3100/animal, n=3, read-out: Biodistribution blood, competition with AMD3100): 2.98 ± 0.57 %ID/g
tissue uptake at 1 h ([2]; colon, tracer only, i.v., γ-counter, n=4-5 (68Ga: n=4), read-out: Biodistribution colon): 0.67 ± 0.13 %ID/g
tissue uptake at 1 h ([2]; colon, with AMD3100, 50 µg per animal, coinjected (CXCR4 competition), coinjection of 50 µg AMD3100/animal, n=3, read-out: Biodistribution colon, competition with AMD3100): 0.47 ± 0.09 %ID/g
tissue uptake at 1 h ([2]; femur, tracer only, i.v., γ-counter, n=4-5 (68Ga: n=4), read-out: Biodistribution femur): 1.27 ± 0.32 %ID/g
tissue uptake at 1 h ([2]; femur, with AMD3100, 50 µg per animal, coinjected (CXCR4 competition), coinjection of 50 µg AMD3100/animal, n=3, read-out: Biodistribution femur, competition with AMD3100): 0.74 ± 0.11 %ID/g
tissue uptake at 1 h ([2]; heart, tracer only, i.v., γ-counter, n=4-5 (68Ga: n=4), read-out: Biodistribution heart): 1.51 ± 0.25 %ID/g
tissue uptake at 1 h ([2]; heart, with AMD3100, 50 µg per animal, coinjected (CXCR4 competition), coinjection of 50 µg AMD3100/animal, n=3, read-out: Biodistribution heart, competition with AMD3100): 1.37 ± 0.33 %ID/g
tissue uptake at 1 h ([2]; kidney, tracer only, i.v., γ-counter, n=4-5 (68Ga: n=4), read-out: Biodistribution kidney): 11.5 ± 3.58 %ID/g
tissue uptake at 1 h ([2]; kidney, with AMD3100, 50 µg per animal, coinjected (CXCR4 competition), coinjection of 50 µg AMD3100/animal, n=3, read-out: Biodistribution kidney, competition with AMD3100): 7.16 ± 1.62 %ID/g
tissue uptake at 1 h ([2]; liver, with AMD3100, 50 µg per animal, coinjected (CXCR4 competition), coinjection of 50 µg AMD3100/animal, n=3, read-out: Biodistribution liver, competition with AMD3100): 4.62 ± 0.56 %ID/g
tissue uptake at 1 h ([2]; lung, tracer only, i.v., γ-counter, n=4-5 (68Ga: n=4), read-out: Biodistribution lung): 3.15 ± 0.5 %ID/g
tissue uptake at 1 h ([2]; lung, with AMD3100, 50 µg per animal, coinjected (CXCR4 competition), coinjection of 50 µg AMD3100/animal, n=3, read-out: Biodistribution lung, competition with AMD3100): 3.12 ± 0.57 %ID/g
tissue uptake at 1 h ([2]; muscle, tracer only, i.v., γ-counter, n=4-5 (68Ga: n=4), read-out: Biodistribution muscle): 0.45 ± 0.05 %ID/g
tissue uptake at 1 h ([2]; muscle, with AMD3100, 50 µg per animal, coinjected (CXCR4 competition), coinjection of 50 µg AMD3100/animal, n=3, read-out: Biodistribution muscle, competition with AMD3100): 0.4 ± 0.11 %ID/g
tissue uptake at 1 h ([2]; pancreas, tracer only, i.v., γ-counter, n=4-5 (68Ga: n=4), read-out: Biodistribution pancreas): 0.68 ± 0.01 %ID/g
tissue uptake at 1 h ([2]; pancreas, with AMD3100, 50 µg per animal, coinjected (CXCR4 competition), coinjection of 50 µg AMD3100/animal, n=3, read-out: Biodistribution pancreas, competition with AMD3100): 0.69 ± 0.07 %ID/g
tissue uptake at 1 h ([2]; small intestine, tracer only, i.v., γ-counter, n=4-5 (68Ga: n=4), read-out: Biodistribution small intestine): 0.94 ± 0.13 %ID/g
tissue uptake at 1 h ([2]; small intestine, with AMD3100, 50 µg per animal, coinjected (CXCR4 competition), coinjection of 50 µg AMD3100/animal, n=3, read-out: Biodistribution small intestine, competition with AMD3100): 0.94 ± 0.31 %ID/g
tissue uptake at 1 h ([2]; spleen, tracer only, i.v., γ-counter, n=4-5 (68Ga: n=4), read-out: Biodistribution spleen): 2.01 ± 0.19 %ID/g
tissue uptake at 1 h ([2]; spleen, with AMD3100, 50 µg per animal, coinjected (CXCR4 competition), coinjection of 50 µg AMD3100/animal, n=3, read-out: Biodistribution spleen, competition with AMD3100): 2.38 ± 0.23 %ID/g
tissue uptake at 1 h ([2]; stomach, tracer only, i.v., γ-counter, n=4-5 (68Ga: n=4), read-out: Biodistribution stomach): 1.2 ± 0.1 %ID/g
tissue uptake at 1 h ([2]; stomach, with AMD3100, 50 µg per animal, coinjected (CXCR4 competition), coinjection of 50 µg AMD3100/animal, n=3, read-out: Biodistribution stomach, competition with AMD3100): 0.97 ± 0.32 %ID/g
tissue uptake at 1 h ([2]; tumor (Daudi xenograft), tracer only, i.v., γ-counter, n=4-5 (68Ga: n=4), read-out: Biodistribution tumor (Daudi xenograft)): 11.7 ± 1.31 %ID/g
tissue uptake at 1 h ([2]; tumor (Daudi xenograft), with AMD3100, 50 µg per animal, coinjected (CXCR4 competition), coinjection of 50 µg AMD3100/animal, n=3, read-out: Biodistribution tumor, competition with AMD3100): 2.52 ± 0.36 %ID/g
